Data as given in paper PMC11001709, “Anti-toxoplasma activity and DNA-binding of copper(II) and zinc(II) coordination compounds with 5-nitroimidazole-based ligands” (Journal of Biological Inorganic Chemistry, 2023).

What was measured:
Entamoeba histolytica = conditions: cited from earlier work
ct-DNA = test: UV-Vis absorption titration with ct-DNA (Kb); format: binding, calf; conditions: band at 320 nm, cacodylate/NaCl buffer pH 7.25, 1 h
Procedure: For the UV–Vis, fluorescence and circular dichroism assays the concentration of ct-DNA was determined on a Varian Cary 100 Scan spectrophotometer from the absorption at 260 nm and the corresponding molar absorptivity of 6600 M^−1 cm^−1 (nucleobase concentration). The stock solutions of the coordination compounds and the free ligands were prepared in cacodylate/NaCl buffer (1 mM cacodylic acid and 20 mM sodium chloride) at pH 7.25. The final samples contained a DMSO concentration of 0.2%.
Absorption titration experiments were carried out by adding increasing concentrations of ct-DNA (0–25 µM) to 10 µM of the compounds in a final volume of 2 mL. The samples were incubated for 1 h at 37 °C, and spectra were collected on a Varian Cary 100 Scan spectrophotometer. For these assays the charge-transfer band of the compounds was followed at 320 nm. The intrinsic binding constant (Kb) was determined from the titration data using Eq. 2:2 DNA/εα-εf=DNA/ε0-εf+1/Kbε0-εf where εa, ε0 and εf are respectively, the molar extinction coefficients of […].

## Cc1ncc([N+](=O)[O-])n1CC(O)CCl.Cc1ncc([N+](=O)[O-])n1CC(O)CCl.[Cl][Zn][Cl] (centres unmarked) [[Zn(onz)2Cl2]]
Entamoeba histolytica
  MIC: 6.25 µM

## Cc1ncc([N+](=O)[O-])n1CCCl.Cc1ncc([N+](=O)[O-])n1CCCl.[Br][Cu][Br] [[Cu(cenz)2Br2]]
ct-DNA
  Kb: 450000 M⁻¹
